The values that follow come from US7407946B2, “Quinazoline compounds” (AstraZeneca AB, priority 2002, dated 2008).

One experiment relates to SW620. The experiment can be described thus: In vitro cell proliferation assay (BrdU incorporation). In kind it is cell-based. As to conditions: Homo sapiens, SW-620; SW620, 48 hours with compound, 2 hour BrdU labelling; read-out: active at (concentration giving 50% inhibition of BrdU incorporation). The source says:
(c) In Vitro Cell Proliferation Assay
This and other assays can be used to determine the ability of a test compound to inhibit the growth of adherent mammalian cell lines, for example the human tumour cell line SW620 (ATCC CCL-227). This assay determines the ability of at test compound to inhibit the incorporation of the thymidine analogue, 5′-bromo-2′-deoxy-uridine (BrdU) into cellular DNA. SW620 or other adherent cells were typically seeded at 1×10^5 cells per well in L-15 media (GIBCO) plus 5% foetal calf serum, 1% L-glutamine (100 μl/well) in 96 well tissue culture treated 96 well plates (Costar) and allowed to adhere overnight. […] The optical density of the wells was then determined at 690 nm wavelength using a Titertek Multiscan plate reader. […]
(Incorporation of labelled thymidine or its analogues reports DNA synthesis.)

A further experiment deals with T1, Aurora-B (Homo sapiens, UniProt Q96GD4).
T1 construct: 6-histidine; made in house; host or cells: Spodoptera frugiperda Sf21 insect cells (baculovirus)
T1 sequence (Q96GD4 whole entry): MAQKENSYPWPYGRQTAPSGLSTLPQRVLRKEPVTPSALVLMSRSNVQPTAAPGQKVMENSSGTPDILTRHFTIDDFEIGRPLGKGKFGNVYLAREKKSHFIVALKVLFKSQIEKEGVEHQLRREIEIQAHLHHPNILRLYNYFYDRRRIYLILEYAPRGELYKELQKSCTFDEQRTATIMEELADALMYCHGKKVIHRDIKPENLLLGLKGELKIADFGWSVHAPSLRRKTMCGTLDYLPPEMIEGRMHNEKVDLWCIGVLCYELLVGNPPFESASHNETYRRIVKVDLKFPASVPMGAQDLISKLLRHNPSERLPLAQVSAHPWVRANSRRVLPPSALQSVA
The experiment can be described thus: In vitro Aurora-B kinase inhibition test. In kind it is biochemical. As to conditions: recombinant Aurora-B, [γ33P]ATP, peptide substrate, 60 minutes at room temperature; read-out: concentration giving 50% inhibition of enzyme activity. The source says:
(b) In Vitro Aurora-B Kinase Inhibition Test
This assay determines the ability of a test compound to inhibit serine-threonine kinase activity. DNA encoding Aurora-B may be obtained by total gene synthesis or by cloning. This DNA may then be expressed in a suitable expression system to obtain polypeptide with serine-threonine kinase activity. In the case of Aurora-B, the coding sequence was isolated from cDNA by polymerase chain reaction (PCR) and cloned into the pFastBac system in a manner similar to that described above for Aurora-A (i.e. to direct expression of a 6-histidine tagged Aurora-B protein).
For the large scale expression of Aurora-B kinase activity, Sf21 insect cells were grown at 28° C. in TC100 medium supplemented with 10% foetal calf serum (Viralex) and 0.2% F68 Pluronic (Sigma) on a Wheaton roller rig at 3 r.p.m. When the cell density reached 1.2×10^6 cells ml^−1 they were infected with plaque-pure Aurora-B recombinant virus at a multiplicity of infection of 1 and harvested 48 hours later. All subsequent purification steps were performed at 4° C. […]

Another experiment concerns the target T2, Aurora-A (Homo sapiens, UniProt O14965).
T2 construct: 6 histidine residues, spacer region and rTEV protease cleavage site (pFastBac HTc) (N); made in house; host or cells: Spodoptera frugiperda Sf21 insect cells (baculovirus)
T2 sequence (O14965 1-403): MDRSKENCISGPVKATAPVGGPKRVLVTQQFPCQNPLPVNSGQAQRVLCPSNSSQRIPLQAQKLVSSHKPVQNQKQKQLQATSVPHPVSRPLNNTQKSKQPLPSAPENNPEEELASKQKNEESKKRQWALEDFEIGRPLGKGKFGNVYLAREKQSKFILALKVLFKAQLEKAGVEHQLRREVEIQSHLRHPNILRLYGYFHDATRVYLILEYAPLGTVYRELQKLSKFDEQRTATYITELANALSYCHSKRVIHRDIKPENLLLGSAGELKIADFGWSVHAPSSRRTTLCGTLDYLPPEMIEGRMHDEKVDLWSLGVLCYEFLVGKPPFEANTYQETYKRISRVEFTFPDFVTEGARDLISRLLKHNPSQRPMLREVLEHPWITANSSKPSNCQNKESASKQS
The experiment can be described thus: In vitro Aurora-A kinase inhibition test. In kind it is biochemical.

The next experiment concerns SW620 cells. Put plainly: In vitro cell cycle analysis assay. The experiment is classed as cell-based, human. As to conditions: 24 hours with compound, DNA content by FACS. The procedure: (d) In Vitro Cell Cycle Analysis Assay
This assay determines the ability of a test compound to arrest cells in specific phases of the cell cycle. Many different mammalian cell lines could be used in this assay and SW620 cells are included here as an example. SW620 cells were seeded at 7×10^5 cells per T25 flask (Costar) in 5 ml L-15 (5% FCS, 1% L-glutamine). Flasks were then incubated overnight in a humidified 37° C. incubator with 5% CO2. The following day, 5 μl of L-15 (5% FCS, 1% L-glutamine) carrying the appropriate concentration of test compound solubilised in DMSO was added to the flask. A no compound control treatments was also included (0.5% DMSO). The cells were then incubated for a defined time (24 hours) with compound. […]
Each sample was then syringed 10 times using 21-guage needle. The samples were then transferred to LPS tubes and DNA content per cell analysed by Fluorescence activated cell sorting (FACS) using a FACScan flow cytometer (Becton Dickinson). Typically 30,000 events were counted and recorded using CellQuest v1.1 software (Verity Software). Cell cycle distribution of the population was calculated using Modfit software (Verity Software) and expressed as percentage of cells with 2N (G0/G1), 2N-4N (S phase) and with 4N (G2/M) DNA content.

Take `COc1cc2c(Nc3ncc(CC(=O)Nc4cccc(F)c4)s3)ncnc2cc1OCCCN1CCC[C@@H]1COP(=O)(O)O` [Compound 2, ((2R)-1-(3-((4-((5-(2-((3-fluorophenyl)amino)-2-oxoethyl)-1,3-thiazol-2-yl)amino)-6-methoxyquinazolin-7-yl)oxy)propyl)pyrrolidin-2-yl)methyl dihydrogen phosphate]: the IC50 came out at 6 nM in the experiment on SW620, 9 nM at Aurora-B and 10.2 nM against Aurora-A. The “active at (cell cycle analysis, arrest of cells in specific phases)” value in the experiment with SW620 cells worked out at 20 nM.
